{"source": "patent US20110251220A1", "about": "“Pharmaceutical compositions comprising gamma secretase modulators” (priority 2008, published 2011)", "key": {"[1]": {"test_system": "human podocyte cell line", "test": "TGFβ-induced apoptosis in human podocyte cell line (Cell Death Detection ELISA)", "assay_type": "cell-based", "experimental": "The percentage of the apoptotic cells was determined after 24 hours using the Cell Death Detection ELISA (Roche Diagnostics, Mannheim, Germany) according to the manufaturer's protocol."}, "[2]": {"test_system": "MM cells", "test": "Proliferation assay (CellTiter-Glo), concentration of 50% growth inhibition", "assay_type": "cell-based", "conditions": "Homo sapiens; read-out: Concentration at which 50% cell growth inhibition was observed", "experimental": "Human MM cell lines used were as follows: NCI-H929, OPM-2, LP-1, RPMI-8226, U266 (DSMZ, Braunschweig, Germany). Cell lines were cultured in RPMI 1640 medium (Biochrom, Berlin, Germany) supplemented with 10% heat-inactivated fetal calf serum (FCS, Gibco, Karlsruhe, Germany), 1 mM sodium pyruvate and 100 units/ml penicillin and 100 μg/ml streptomycin (Gibco). Human osteoclasts were obtained as described in the reference of Zavrski I, Krebbel H, Wildemann B, et al. Proteasome inhibitors abrogate osteoclast differentiation and osteoclast function. Biochem Biophys Res Commun. 2005; 333:200-205. Briefly, peripheral blood mononuclear cells (PBMC) were isolated from whole blood of healthy volunteers, using a Ficoll-Hypaque density gradient. The adherent fraction of the isolated mononuclear cells was cultured for 21 days in MEM medium (Sigma-Aldrich Chemie, Taufkirchen, Germany) supplemented with 10% FCS, 100 U/ml penicillin, 100 μg/ml streptomycin, 50 ng/ml M-CSF, and 25 ng/ml RANKL (osteoclastogenic medium), before coculture experiments and treatment with the inventive compounds started. Human osteoblasts were obtained according to Robey P G, Termine J D. Human bone cells in vitro. Calcif Tissue Int. 1985; 37:453-460 as described in Hecht M, Heider U, Kaiser M, von Metzler I, Sterz J, Sezer O. Osteoblasts promote migration and invasion of myeloma cells through upregulation of matrix metalloproteinases, urokinase plasminogen activator, hepatocyte growth factor and activation of p38 MAPK. Br J Haematol. 2007; 138: 446-458. Briefly, trabecular bone specimens from patients without malignant disease undergoing knee or hip surgery were minced and washed to remove bone marrow cells. The bone fragments were resuspended in Dulbecco's modified Eagle's medium (DMEM)/HAM's F12 medium (Biochrom, Berlin, Germany) supplemented with 10% FCS and cultured in tissue culture flasks until a confluent cell monolayer was obtained. Culturing of functional osteoblasts was confirmed by alkaline phosphatase (ALP) staining (kit from Sigma, USA), realtime RT-PCR analysis of expression of osteoblast markers (ALP, osteocalcin) and by von-Kossa staining before coculture and treatment experiments were started.\nThe compound according to example 1, hereinafter referred to as GSI15, (compound RH02015SC, Maybridge, Acros Organics, Geel, Belgium) was freshly dissolved as 26 mM stock solution in Dimethylsulfoxide (DMSO). Multiple myeloma therapeutics used were melphalan (marketed as Alkeran®, GlaxoSmithKline, Munich, Germany) and bortezomib (marketed as Velcade®, Janssen-Cilag, Neuss, Germany). Melphalan was freshly dissolved at 10 mg/ml in 0.9% NaCl-solution. Bortezomib was freshly dissolved at 100 ng/ml in 0.9% NaCl solution. Gamma Secretase Inhibitor (GSI) treatment for apoptosis assessment by AnnexinV/PI staining, cell cycle analysis and coculture experiments was performed in 6-well plates. GSI15 stock solution was added directly to the cell suspension. GSI treatment for assaying proliferation was performed in 96-well plates. 10,000 cells per well were seeded in 50 μl medium per well before 50 μl of a 2× solution of GSI15 prediluted in medium were added per well. […]\nFor assaying proliferation/viability of cells CellTiter-Glo Luminescent Cell Viability Assay (Promega, Mannheim, Germany) was used. In this assay the number of viable cells at a given time point is determined by quantification of ATP present, which serves as a measure of metabolically active cells. […]"}, "[3]": {"test_system": "male Sprague-Dawley rats", "test": "PAN-model of albuminuric glomerular disease", "assay_type": "in vivo, rat", "conditions": "day 5, 500 μg/100 g rat i.p. once per day, compared to PAN alone", "experimental": "For the in vivo studies male Sprague-Dawley rats were purchased from Charles River and treated with puromycin aminoglycoside (PAN) to induce albuminuric glomerular disease as described previously (Niranjan et al., “The Notch pathway in podocytes plays a role in the development of glomerular disease.” Nat. Med. 14: 290-298, 2008). Rats were injected PAN (150 mg/kg) once. The test compounds were administered intraperitoneally (500 μg/100 g rat) once per day (n=4 animals per group). Injection of test compounds were started one day after PAN injection. All studies were performed in accordance with the European Union normative. As a positive control one group of rats received gamma secretase inhibitor DAPT.\nUrinary albumine was measured at the indicated days as described previously (Sanchez-Nino et al., “The MIF receptor CD74 in diabetic podocyte injury”. J. Am. Soc. Nephrol. 20: 353-362, 2009). For total protein measurement urine samples were centrifuged and pellets were diluted in distilled water. Exton reagent (230 mM sulfosalic acid, 1.4 M sodium sulfate) was added and after 10 minutes absorbance was measured at 620 nm."}, "[4]": {"test_system": "OPM-2 cells", "test": "Apoptosis by AnnexinV-FITC/PI staining, OPM-2", "assay_type": "cell-based, human", "conditions": "for cell death: OPM-2, 24 h or 48 h, single agent", "experimental": "The compound according to example 1, hereinafter referred to as GSI15, (compound RH02015SC, Maybridge, Acros Organics, Geel, Belgium) was freshly dissolved as 26 mM stock solution in Dimethylsulfoxide (DMSO). Multiple myeloma therapeutics used were melphalan (marketed as Alkeran®, GlaxoSmithKline, Munich, Germany) and bortezomib (marketed as Velcade®, Janssen-Cilag, Neuss, Germany). Melphalan was freshly dissolved at 10 mg/ml in 0.9% NaCl-solution. Bortezomib was freshly dissolved at 100 ng/ml in 0.9% NaCl solution. Gamma Secretase Inhibitor (GSI) treatment for apoptosis assessment by AnnexinV/PI staining, cell cycle analysis and coculture experiments was performed in 6-well plates. GSI15 stock solution was added directly to the cell suspension. GSI treatment for assaying proliferation was performed in 96-well plates. 10,000 cells per well were seeded in 50 μl medium per well before 50 μl of a 2× solution of GSI15 prediluted in medium were added per well. Melphalan and bortezomib treatment as well as their combination with GSI15 for assaying apoptosis by AnnexinV/PI staining was done in 6-well plates. All inhibitors were added directly to the cells in 6-well plates.\nFor cell cycle analysis 2×10^5 cells were spun down, medium was aspirated and cells washed with PBS. Cells were then resuspended in 250 μl PBS. 1 ml ice-cold 70% ethanol was added, followed by overnight incubation at −20° C. Cells were spun down, the pellet washed with PBS and then resuspended in 200 μl PBS containing 0.15 mg/ml RNaseA and 30 μg/ml propidium iodide (PI). After 10 minutes incubation in the dark at room temperature, cells were analyzed by flow cytometry. The amount of apoptotic cells was determined by AnnexinV/propidium iodide staining using Human AnnexinV-FITC Kit (Bender Medsystems, Vienna, Austria), according to manufacturer's protocol. Briefly, 2×10^5 cells were spun down and washed with PBS, followed by 10 minutes incubation in binding buffer containing AnnexinV-FITC conjugate. Cells were then spun down again, resuspended in binding buffer containing PI and analyzed by flow cytometry."}}}
{"smiles": "C[C@H](NC(=O)Cc1cc(F)cc(F)c1)C(=O)N[C@H](C(=O)OC(C)(C)C)c1ccccc1", "note": "[DAPT, reference compound]", "values": [{"measurement": "inhibition of apoptosis", "setting": "[1]; 1 μM, compared to TGFβ alone, 24 hours", "value": 37, "unit": "%"}]}
{"smiles": "CC(C)(C)c1ccc(Oc2ncccc2NS(=O)(=O)c2ccccc2C(F)(F)F)cc1", "note": "[Example 2, N-(2-(4-tert-butylphenoxy)pyridin-3-yl)-2-(trifluoromethyl)benzenesulfonamide]", "values": [{"measurement": "IC50", "setting": "[2]", "value": 30, "unit": "µM"}, {"measurement": "effect in podocyte cell culture experiments", "setting": "[1]", "value": "positive effect"}, {"measurement": "inhibition at 3 µM", "setting": "[1]; Homo sapiens, 3 μM, compared to TGFβ alone, 24 hours", "value": 27, "unit": "%"}, {"measurement": "inhibition at 10 µM", "setting": "[1]; Homo sapiens, 10 μM, compared to TGFβ alone, 24 hours", "value": 27, "unit": "%"}, {"measurement": "inhibition of albuminuria", "setting": "[3]", "value": 42, "unit": "%"}, {"measurement": "inhibition of proteinuria", "setting": "[3]", "value": 37, "unit": "%"}]}
{"smiles": "Cc1ccc(Sc2ncccc2NS(=O)(=O)c2ccc(Cl)cc2)cc1", "note": "[Example 3, 4-chloro-N-(2-(p-tolylthio)pyridin-3-yl)benzenesulfonamide]", "values": [{"measurement": "IC50", "setting": "[2]", "value": 30, "unit": "µM"}]}
{"smiles": "CC(Sc1nc(=O)cc(N)n1CCc1ccccc1)C(=O)Nc1cccc(Cl)c1", "note": "(stereo not shown) [Example 4, 2-(6-amino-4-oxo-1-phenethyl-1,4-dihydropyrimidin-2-ylthio)-N-(3-chlorophenyl)propanamide]", "values": [{"measurement": "IC50", "setting": "[2]", "value": 20, "unit": "µM"}]}
{"smiles": "Nc1cc(=O)nc(SCC(=O)Nc2ccc(Cl)cc2)n1CCc1ccccc1", "note": "[Example 5, 2-(6-amino-4-oxo-1-phenethyl-1,4-dihydropyrimidin-2-ylthio)-N-(4-chlorophenyl)acetamide]", "values": [{"measurement": "IC50", "setting": "[2]", "value": 20, "unit": "µM"}]}
{"smiles": "CC(C)C[C@H](NC(=O)[C@H](Cc1ccccc1)NC(=O)c1cnccn1)B(O)O", "note": "[bortezomib]", "values": [{"measurement": "cell death", "setting": "[4]", "value": "dose-dependently triggered cell death"}]}
{"smiles": "N[C@@H](Cc1ccc(N(CCCl)CCCl)cc1)C(=O)O", "note": "[melphalan]", "values": [{"measurement": "apoptotic cells", "setting": "[4]; OPM-2, 50 μM melphalan alone, 24 h", "value": 32, "unit": "%"}, {"measurement": "cell death", "setting": "[4]", "value": "dose-dependently triggered cell death"}]}
